Test results taken from US20030010621A1, “NOVEL SYNTHESIS OF PHTHALOCYANINES BY MICROWAVE IRRADIATION” (priority 2001, published 2003).

Assay: Solubility of lab-made phthalocyanines in organic solvents
Format: physicochemical

solubility (THF)	solubility (acetone)	solubility (methanol)	solubility (n-hexane)	solubility (toluene)	Compound
◯ (slightly soluble (1 wt. % ˜ 3 wt. %))	◯ (slightly soluble (1 wt. % ˜ 3 wt. %))	Δ (hardly soluble (<1 wt. %))	Δ (hardly soluble (<1 wt. %))	◯ (slightly soluble (1 wt. % ˜ 3 wt. %))	[Co+2].c1ccc2c(c1)-c1nc-2nc2[n-]c(nc3nc(nc4[n-]c(n1)c1ccccc41)-c1ccccc1-3)c1ccccc21 [CoPc]
◯ (slightly soluble (1 wt. % ˜ 3 wt. %))	◯ (slightly soluble (1 wt. % ˜ 3 wt. %))	Δ (hardly soluble (<1 wt. %))	Δ (hardly soluble (<1 wt. %))	◯ (slightly soluble (1 wt. % ˜ 3 wt. %))	[Ni+2].c1ccc2c(c1)-c1nc-2nc2[n-]c(nc3nc(nc4[n-]c(n1)c1ccccc41)-c1ccccc1-3)c1ccccc21 [NiPc]
